Reference: patent US20060193902A1, “Pharmaceutical compositions containing active agents having a lactone group and transition metal ions” (Celator Pharmaceuticals, Inc., priority 2003, published 2006)

Columns and labels:
DNA = settings: copper(II) complex, long-wave UV light; CuSO4 and drug 10 μM; cited from earlier work
[1] = Lactone/carboxy ratio of irinotecan in buffers with or without copper sulphate, by HPLC (Example 2); format: physicochemical; settings: presence of CuSO4, pH 7.5
[2] = Thin layer chromatography for ring closed lactone and ring open carboxylate forms of irinotecan (Example 5); format: physicochemical; settings: HEPES buffered saline, acidic conditions, 30 minutes; lactone form
Description: Three sets of liposomal formulations of irinotecan were prepared as previously described. […] Any unencapsulated irinotecan was removed by column chromatography. […] The third formulation (B) contained irinotecan and floxuridine in the final composition. In this formulation the liposomes were prepared in the presence of floxuridine and then unencapsulated drug was removed by chromatography. […] In all cases the external pH was adjusted to match the internal liposomal pH prior to irinotecan loading.
Liposomal formulations of irinotecan were first analyzed for ring closed lactone and ring open carboxylate forms of the drug by thin layer chromatography. A set of standards were first prepared and used as a reference for the liposomal formulations. […] The TLC plates were dried overnight at room temperature and then run in a second solvent system composed of butanol:acetic acid:water:acetone (4:2:1:1). […] As the pH of the solution increased, the presence of the carboxylate band appears.
The plates were run in the same solvent systems and visualized by UV light.

[3] = 3 hours of incubation in human blood; cited from earlier work

SMILES | DNA cleavage (DNA) [%] | irinotecan remaining in the lactone form ([1]; 4 hours) [%] | irinotecan present in the ring-closed, lactone form ([1]; 24 hours) [%] | irinotecan species seen by TLC in aqueous standards [2] | lactone ring present [3] [%]
CC[C@@]1(O)C(=O)OCc2c1cc1n(c2=O)Cc2cc3cc(O)ccc3nc2-1 [10-hydroxycamptothecin] | 1.7 |  |  |  | 
CC[C@H]1C(=O)OCc2c1cc1n(c2=O)Cc2cc3ccccc3nc2-1 [20-deoxycamptothecin] | 28 |  |  |  | 
CCc1c2c(nc3ccc(OC(=O)N4CCC(N5CCCCC5)CC4)cc13)-c1cc3c(c(=O)n1C2)COC(=O)[C@]3(O)CC [Irinotecan, irinotecan] |  | 56.39 | 58.66 | dominant species | 
CC[C@@]1(O)C(=O)OCc2c1cc1n(c2=O)Cc2cc3ccccc3nc2-1 [camptothecin] | 51 |  |  |  | 5
